# Measured values taken from US20200268720A1, “METHODS OF USE OF A CLASS IIA HDAC INHIBITOR” (GlaxoSmithKline LLC, priority 2016, published 2020).
# Assays:
# tumor macrophages = assay: Macrophage phagocytosis and activation in tumors (IHC, immunocytochemistry, flow cytometry); format: in vivo, mouse
# Experimental: Tumor cells were acquired from three DMSO and three TMP195 5-day treated autochthonous MMTV-PyMT mice. CD11b^+ cells were purified using the automacs (Miltenyi) automated machine according to manufacturer's protocol. CD11b cells were labeled with a CD11b-biotin antibody (101204, BioLegend) and retrieved with ultrapure biotin beads (Miltenyi 130-105-637). Following purification, CD11b^+ cells were cytospun at 300 rpm for 5 minutes onto slides. Cells were fixed in 4% PFA/Sucrose solution for 5 minutes at RT and stored in 4° C. until ready for use. Upon experimentation, slides were permeablized with 0.03% Triton-X for 10 minutes, followed by three 5 minute rinses with 1× PBS. Samples were blocked with 10% Normal Goat Serum (NGS) in 1×PBS for 1 hour at RT. Next cells were stained for the following antibodies anti-mouse/human CD11b (101201, BioLegend), anti-mouse F4/80 (Bio-Rad, MCA497R), and Alexa Fluor 594 anti-mouse CD326 (Ep-CAM) (118222, BioLegend) at 1:100, 1:50 and 1:25 dilution in 1% NGS/1×PBS respectively overnight at 4° C. The following morning, samples were rinsed three times with 1×PBS for five minutes each, replaced with Alexa Fluor 488 goat anti-rat IgG (405418, BioLegend) at 1:200 dilution in 1% NGS, and incubated for one hour at RT. All samples were counterstained with Dapi (P36930, Life Technologies) at 1:1000 dilution in 1% NGS. Next, the samples were rinsed three times for 5 minutes each with 1×PBS. Slides were dehydrated 2× with 95% ethanol and 1× with 100% ethanol. Coverslips were mounted using Prolong Gold antifade reagent (936930, Life Technologies) and imaged with Leica SP5X: Laser Scanning Confocal microscope at 40× magnification. For analysis immunocytochemistry images were assessed by using a co-localization pipeline. In general, the pipeline identified a primary image (nucleus) and a secondary image (CD11b^+). The overlapped images were identified as a “cell”. To avoid background signal, a minimum threshold was applied for the protein of interest (CD11b, F480 and EPCAM) and only the masked objects that had fell within the given dynamic range were considered CD11b or F480 positive. Finally the overlapped image identified as “cell” was masked with the threshold image of the EPCAM. Objects identified as positive for CD11b and EPCAM or F480 and EPCAM were normalized to the number of CD11b or F480 positive cells per image, and portrayed as an average percentage. A total of 60 individual CD11b+ cells and a total of 100 individual F480^+ cells were analyzed from each treatment group.
# Human monocytes = assay: In vitro antigen presenting cell (APC) and T cell proliferation experiments; format: cell-based
# Excerpt: Blood was collected from healthy donors according to the guidelines of the American Association of Blood Banks and under an IRB-approved informed consent form was purchased from Research Blood Components (Boston, Mass.). Human monocytes were isolated from buffy coat preparations via positive selection as per the manufacturer's instructions (StemCell Technologies, Catalog #18058). Monocytes were differentiated into antigen presenting cells in RPMI Medium 1640 supplemented with GLUTAMAX™ (GIBCO), fetal bovine serum (10% v/v), IL-4 (10 ng/ml), GM-CSF (50 ng/ml), penicillin (100 U/ml), and streptomycin (100 ug/ml) for 5 days in the presence of either 0.1% (v/v) DMSO or 300 nM TMP195. Cells were collected by washing and incubation with a solution of 5 mM EDTA in PBS (Ca2^+ and Mg2^+-free), prior to flow cytometric analysis of CD80 (Biolegend #305208) and CD86 (Biolegend #305418). Alternatively, harvested APCs were counted and co-cultured in culture medium (no DMSO or inhibitor present) with heterologous CD4^+ T cells (isolated from buffy coats via negative selection following manufacturer's instructions, StemCell Technologies, Catalog #15062) that had been labeled with CELLTRACE™ CFSE (ThermoFisher catalog #C34554) at a 10:1 T cell:APC ratio. T cell proliferation was stimulated by the addition of 200 pg/ml anti-CD3 (Biolegend Catalog #317326), and proliferation was quantified after 72 hours of co-culture by the dilution of CFSE using FlowJo software (version 9.4, Treestar, Inc.).
# tumor vasculature = assay: Tumor vasculature (CD34 IHC, heavy dextran leaky vasculature experiment); format: in vivo, mouse
# Experimental: Tumor bearing mice that had been treated for 5 days with vehicle or TMP195 were injected with a heavy molecular weight (250 kDa; Sigma-Aldrich FD250S) dextran labeled with FITC36. After 10 minutes, mice were sacrificed. […] Tumors were removed and placed in a 4% PBS/Paraformaldehyde solution overnight, then embedded in a 20% sucrose solution overnight. Tumors were embedded in an optimum cutting temperature (OCT) solution and stored at −80° C. prior to sectioning and staining. The extent of the heavy dextran that permeated through the vasculature was visualized by immunofluorescence.
# MMTV-PyMT tumors [1] = assay: Tumor cell proliferation and apoptosis (Ki67, cleaved Caspase 3 IHC, immunoblot); format: in vivo, mouse; details: 5 days of TMP195
# Experimental: Tumors were manually dissociated using a blade before being lysed in complete RIPA lysis buffer for 2 hours at 4° C. Complete RIPA is a combination of RIPA lysis buffer, a protease inhibitor, and Phenylmethylsulfonyl fluoride (PMSF). After incubation in RIPA, the lysates were centrifuged at 10,000 rcf for 10 minutes and the supernatant was collected for analysis. Protein concentration was measured using a Bicinchoninic acid (BCA) assay as per manufacturer's instructions. Equal protein concentrations were mixed into NuPAGE LDS sample buffer, beta mercaptoethanol (BME), and complete RIPA buffer before being heated for 10 mins at 90° C. to denature the protein. The gels were run on 15 wells 4-12% Bis-Tris Protein gels for 2 hours at 110 volts before being transferred onto a PVDF membrane. The blots were blocked in a 5% milk and PBST solution, and placed in primary antibody overnight. Blots were then incubated in secondary antibody for 1 hour before being developed with supersignal west PICO chemiluminescence substrate and FEMTO supersignal maximal sensitivity substrate. A Luminescent Image Analyzer LAS-4000 was used to develop blots. Primary antibodies purchased from Cell Signaling Technology were used: cleaved caspase 3 (D175), PARP (9542S) and Actin. Antibodies were diluted to a 1:1000 solution in 1% BSA, and sodium azide diluted to 1:500. […]
# MMTV-PyMT tumors [2] = assay: Combination with PD-1 checkpoint blockade in MMTV-PyMT mice; format: in vivo, mouse; details: TMP195 50 mg/kg IP daily plus 250 μg anti-PD-1
# [3] = IL-4 and GM-CSF, 5 days, 300 nM TMP195 vs 0.1% DMSO
compound,measurement,setting,value
"CC(C)(CNC(=O)c1cccc(-c2noc(C(F)(F)F)n2)c1)c1coc(-c2ccccc2)n1 [TMP195, N-(2-methyl-2-(2-phenyloxazol-4-yl)propyl)-3-(5-(trifluoromethyl)-1,2,4-oxadiazol-3-yl)benzamide]",apoptotic bodies within tumor macrophages (cleaved caspase 3 IHC),tumor macrophages; 5 days of TMP195,appearance of apoptotic bodies
same,intracellular EPCAM in F480+ and CD11b+ cells (phagocytosed breast tumor cells),tumor macrophages; 5 days of TMP195,co-stain as EPCAM^+
same,cells resembling tingible body macrophages (F480 IHC),tumor macrophages; 5 days of TMP195 vs vehicle,marked appearance
same,proportion of F480+ and CD11b+ cells that express CD40,tumor macrophages; 5 days of TMP195 vs vehicle,higher proportion
same,T cell co-stimulatory function of monocytes differentiated to antigen presenting cells,Human monocytes; [3],promoted T cell co-stimulatory function
same,proportion of cells expressing the co-stimulatory molecule CD86,Human monocytes; [3],increase
same,proliferation (Division Index) of CFSE-labeled naive CD4+ T cells co-cultured with differentiated monocytes,"Human monocytes; monocytes differentiated in 300 nM TMP195 vs DMSO, 10:1 T cell:APC",higher degree of proliferation
same,tumor vasculature organization (CD34+ vessel structure),tumor vasculature; 5 days of TMP195 vs DMSO,more organized
same,integrity of the tumor vasculature (retention of IV heavy dextran),tumor vasculature; 5 days of TMP195 vs vehicle,significantly improved
same,"cell death in the tumor (cleaved Caspase 3, PARP cleavage)",MMTV-PyMT tumors [1],increase in cell death
same,proliferating tumor cells (Ki67),MMTV-PyMT tumors [1],significant decrease
same,"tumor burden, TMP195 added to the anti-PD-1 regimen",MMTV-PyMT tumors [2],significantly greater reduction in tumor burden than TMP195 alone
